Consider 18 compounds from patent publication US9108921B2, “Therapeutic compounds and compositions” (AGIOS PHARMACEUTICALS, INC, priority 2014, dated 2015).

The target of one assay is PKR R510Q (Homo sapiens, UniProt P30613, R510Q). As to the kind of experiment: PKR Mutant Assay, AC50 against PKR R510Q. It counts as biochemical. The conditions noted are these: mutant PKR R510Q enzyme. In a few lines: (§1)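 Human PKR (WT or mutant, 80-400 ng/well) in 50 mM Tris pH 7.5, 100 mM KCl, 5 mM MgCl2, 1 mM DTT, 0.03% BSA with PEP 0.1-0.5 mM, NADH 180 uM and LDH, preincubated 60 min at room temperature with compound (11-point 3-fold series from 100 μM final, 1% DMSO). ADP 0.22-1.65 mM started reaction; A340 followed.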
Sequence of PKR R510Q (P30613 whole entry R510Q): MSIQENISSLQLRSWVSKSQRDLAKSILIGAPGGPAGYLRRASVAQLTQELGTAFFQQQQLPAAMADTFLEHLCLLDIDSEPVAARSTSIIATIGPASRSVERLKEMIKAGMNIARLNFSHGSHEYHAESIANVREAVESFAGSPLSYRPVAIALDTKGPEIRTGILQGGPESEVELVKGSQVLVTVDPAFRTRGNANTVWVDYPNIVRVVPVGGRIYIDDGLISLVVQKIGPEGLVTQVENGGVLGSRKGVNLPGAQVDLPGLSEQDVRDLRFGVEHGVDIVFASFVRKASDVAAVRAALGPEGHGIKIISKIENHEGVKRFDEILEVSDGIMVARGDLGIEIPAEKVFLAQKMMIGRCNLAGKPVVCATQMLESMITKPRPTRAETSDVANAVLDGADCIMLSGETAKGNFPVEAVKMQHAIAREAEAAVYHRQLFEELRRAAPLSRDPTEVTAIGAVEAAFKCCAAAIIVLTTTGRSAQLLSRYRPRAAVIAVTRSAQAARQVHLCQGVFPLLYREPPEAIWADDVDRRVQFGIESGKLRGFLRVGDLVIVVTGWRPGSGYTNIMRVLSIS

In another assay the target is PKR R532W (Homo sapiens, UniProt P30613, R532W). As to the kind of experiment: PKR Mutant Assay, AC50 against PKR R532W. It counts as biochemical. Conditions: mutant PKR R532W enzyme. The procedure, abridged:
as §1

Assay [1] addresses T1, PKR WT (Homo sapiens, UniProt P30613). As to the kind of experiment: PKR WT enzymatic AC50 assay. It counts as biochemical. Conditions: wild type PKR. In a few lines: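 Steps: compound added to wells, then reaction mix lacking ADP; 60 min room-temperature hold; ADP (0.22-1.65 mM) added to start; A340 monitored at room temperature via PEP/LDH/NADH coupling. Top final compound concentration 100 μM, 3-fold dilutions over 11 points.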

For assay [2], the target named is T1, PKR WT. Nature of the assay: PKR WT cell based AC50 assay. The conditions noted are these: wild type PKR.

T1 sequence (P30613 whole entry): as the sequence (P30613 whole entry R510Q) above, with Q510R counted along it
Sequence of PKR R532W (P30613 whole entry R532W): as the sequence (P30613 whole entry R510Q) above, with Q510R, R532W counted along it

Turning to `Cc1cc(C(=O)N2CCC(O)(c3cccc(F)c3F)CC2)ccc1NS(=O)(=O)c1ccc(F)c2cccnc12` [Compound 220, N-(4-(4-(2,3-difluorophenyl)-4-hydroxypiperidine-1-carbonyl)-2-methylphenyl)-5-fluoroquinoline-8-sulfonamide], the AC50 is 101 to 1000 nM at PKR R510Q, less than 100 nM at PKR R532W, less than 100 nM at PKR WT [1] and 1010 to 10000 nM at PKR WT [2].
`O=C(c1ccc(NS(=O)(=O)c2cccc3cccnc23)c(Cl)c1)N1CCC(O)(c2ccccc2Cl)CC1` [Compound 222, N-(2-chloro-4-(4-(2-chlorophenyl)-4-hydroxypiperidine-1-carbonyl)phenyl)quinoline-8-sulfonamide]: the AC50 is 101 to 1000 nM on PKR R510Q, less than 100 nM on PKR R532W, less than 100 nM at PKR WT [1] and less than 100 nM at PKR WT [2].
Consider `O=C(c1ccc(NS(=O)(=O)c2cc(F)cc3cccnc23)cc1)N1CCC(O)(c2ccccc2Cl)CC1` [Compound 223, N-(4-(4-(2-chlorophenyl)-4-hydroxypiperidine-1-carbonyl)phenyl)-6-fluoroquinoline-8-sulfonamide], for which the AC50 at PKR R510Q was 101 to 1000 nM; at PKR R532W, less than 100 nM; at PKR WT [1] it was less than 100 nM; on PKR WT [2] it was 101 to 1000 nM.
Consider `O=C(c1ccc(NS(=O)(=O)c2cccc3ccc(F)nc23)cc1)N1CCC(O)(c2ccccc2Cl)CC1` [Compound 224, N-(4-(4-(2-chlorophenyl)-4-hydroxypiperidine-1-carbonyl)phenyl)-2-fluoroquinoline-8-sulfonamide], for which the AC50 at PKR R510Q is 1010 to 10000 nM; at PKR R532W, less than 100 nM; at PKR WT [1], less than 100 nM; at PKR WT [2], 101 to 1000 nM.
`COCCC1(O)CCN(C(=O)c2ccc(NS(=O)(=O)c3cccc4cccnc34)cc2)CC1` [Compound 225, N-[4-[4-hydroxy-4-(2-methoxyethyl)piperidine-1-carbonyl]phenyl]quinoline-8-sulfonamide]: the AC50 at PKR R510Q was 101 to 1000 nM; at PKR R532W, 101 to 1000 nM; at PKR WT [1] it was less than 100 nM; at PKR WT [2], 101 to 1000 nM.
Regarding `O=C(c1ccc(NS(=O)(=O)c2cccc3cccnc23)c2ccccc12)N1CCC(O)(c2ccccc2Cl)CC1` [Compound 226, N-(4-(4-(2-chlorophenyl)-4-hydroxypiperidine-1-carbonyl)naphthalen-1-yl)quinoline-8-sulfonamide], the AC50 at PKR R510Q is 101 to 1000 nM; on PKR R532W it was less than 100 nM; on PKR WT [1], less than 100 nM; at PKR WT [2] it was 101 to 1000 nM.
On to `O=C(c1ccc(NS(=O)(=O)c2cccc3cccnc23)cc1)N1CCC(O)(c2ccccc2O)CC1` [Compound 228, N-[4-[4-hydroxy-4-(2-hydroxyphenyl)piperidine-1-carbonyl]phenyl]quinoline-8-sulfonamide], for which the AC50 at PKR R510Q is 1010 to 10000 nM; on PKR R532W, less than 100 nM; at PKR WT [1] it was 101 to 1000 nM; on PKR WT [2], less than 100 nM.
With `Cc1nc(F)ccc1C1(O)CCN(C(=O)c2ccc(NS(=O)(=O)c3ccc(F)c4cccnc34)cc2)CC1` [Compound 229, 5-fluoro-N-(4-(4-(6-fluoro-2-methylpyridin-3-yl)-4-hydroxypiperidine-1-carbonyl)phenyl)quinoline-8-sulfonamide], the AC50 on PKR R510Q, at PKR R532W, on PKR WT [1] and on PKR WT [2] was 101 to 1000 nM in each case.
Turning to `O=C(c1ccc(NS(=O)(=O)c2cccc(Cl)c2Cl)cc1)N1CCC(O)(Cc2ccccc2)CC1` [Compound 237, N-(4-(4-benzyl-4-hydroxypiperidine-1-carbonyl)phenyl)-2,3-dichlorobenzenesulfonamide], the AC50 at PKR R510Q, at PKR R532W, at PKR WT [1] and at PKR WT [2] was 101 to 1000 nM each time.
Turning to `CC(C)(O)CC1(O)CCN(C(=O)c2ccc(NS(=O)(=O)c3cccc4cccnc34)cc2)CC1` [Compound 241, N-(4-(4-hydroxy-4-(2-hydroxy-2-methylpropyl)piperidine-1-carbonyl)phenyl)quinoline-8-sulfonamide], the AC50 on PKR R510Q lay within 1010 to 10000 nM; on PKR R532W, 101 to 1000 nM; at PKR WT [1], 101 to 1000 nM; at PKR WT [2] it was 101 to 1000 nM.
As to `O=C(c1ccc(NS(=O)(=O)c2cccc3nccnc23)cc1)N1CCC(O)(c2ccccc2)CC1` [Compound 243, N-(4-(4-hydroxy-4-phenylpiperidine-1-carbonyl)phenyl)quinoxaline-5-sulfonamide], the AC50 at PKR R510Q was 1010 to 10000 nM; on PKR R532W, 101 to 1000 nM; at PKR WT [1], 101 to 1000 nM; at PKR WT [2], less than 100 nM.
As to `O=C(c1ccc(NS(=O)(=O)c2cccc3cccnc23)cc1)N1CCC(O)(c2cccc(OC(F)(F)F)c2)CC1` [Compound 245, N-(4-(4-hydroxy-4-(3-(trifluoromethoxy)phenyl)piperidine-1-carbonyl)phenyl)quinoline-8-sulfonamide], the AC50 was 1010 to 10000 nM on PKR R510Q, 101 to 1000 nM on PKR R532W, 101 to 1000 nM on PKR WT [1] and 1010 to 10000 nM at PKR WT [2].
Consider `CCOC(=O)C1(CC(C)C)CCN(C(=O)c2ccc(NS(=O)(=O)c3cccc4cccnc34)cc2)CC1` [Compound 250, Ethyl 4-isobutyl-1-(4-(quinoline-8-sulfonamido)benzoyl)piperidine-4-carboxylate], for which the AC50 on PKR R510Q fell in the range of 1010 to 10000 nM; on PKR R532W it was 101 to 1000 nM; on PKR WT [1], 101 to 1000 nM; at PKR WT [2], 1010 to 10000 nM.
In the case of `O=C(c1ccc(NS(=O)(=O)c2cccc3cccnc23)cc1)N1CCC(O)(C2CC2)CC1` [Compound 260, N-(4-(4-cyclopropyl-4-hydroxypiperidine-1-carbonyl)phenyl)quinoline-8-sulfonamide], the AC50 at PKR R510Q lay within 1010 to 10000 nM; on PKR R532W it was 101 to 1000 nM; on PKR WT [1], 101 to 1000 nM; on PKR WT [2] it was 1010 to 10000 nM.
In the case of `O=C(c1ccc(NS(=O)(=O)c2cccc3cccnc23)cc1)N1CCC(O)(c2cnsc2)CC1` [Compound 353], the AC50 is 101 to 1000 nM on PKR R510Q, less than 100 nM at PKR R532W, less than 100 nM on PKR WT [1] and less than 100 nM at PKR WT [2].
Turning to `O=C(c1ccc(NS(=O)(=O)c2cccc3cccnc23)cc1)N1CCC(O)(c2cnsc2)CC1` [Compound 377], the AC50 is 101 to 1000 nM at PKR R510Q, less than 100 nM at PKR R532W, less than 100 nM at PKR WT [1] and less than 100 nM on PKR WT [2].
With `CC(C)CC1(O)CCN(C(=O)c2ccc(NS(=O)(=O)c3cccc4ocnc34)cc2)CC1` [Compound 379, N-(4-(4-hydroxy-4-isobutylpiperidine-1-carbonyl)phenyl)benzo[d]oxazole-4-sulfonamide], the AC50 on PKR R510Q, at PKR R532W, at PKR WT [1] and on PKR WT [2] was 101 to 1000 nM throughout.
For the compound `CC(C)CC1(O)CCN(C(=O)c2ccc(NS(=O)(=O)c3cccc(O)c3N)cc2)CC1` [Compound 380, 2-amino-3-hydroxy-N-(4-(4-hydroxy-4-isobutylpiperidine-1-carbonyl)phenyl)benzenesulfonamide], the AC50 on PKR R510Q was 101 to 1000 nM; at PKR R532W, 101 to 1000 nM; on PKR WT [1] it was less than 100 nM; on PKR WT [2] it was less than 100 nM.

In general, AC50 refers to the concentration at which the activity in the assay is half-maximal. A high value points to weaker potency.
